Measured values reported in the NIST ThermoML archive (doi:10.1016/j.jct.2016.01.012).
± gives the expanded uncertainty stated by the source. Values belong to the molecule of their own block, whether it stands above or below them.

How the values were obtained:
[1] = 100 kPa, Liquid; for viscosity: Falling or rolling sphere viscometry
[2] = refractive index (Na D-line) (dimensionless); conditions: 298.15 K; 100 kPa; Liquid; Standard Abbe refractometry
[3] = refractive index (Na D-line) (dimensionless); xn = mol fraction of the nth substance listed; conditions: 298.15 K, 100 kPa, Liquid, Standard Abbe refractometry
[4] = xn = mol fraction of the nth substance listed; conditions: 100 kPa, Liquid; for electrical conductivity: Direct current cell with electrodes; for viscosity: Falling or rolling sphere viscometry, x2 = 0

- electrical conductivity ([1]; 298.15 K, Direct current cell with electrodes): 0.218 ± 0.002 S/m
- refractive index [2]: 1.4943 ± 0.0006
Structure (SMILES): CN(C)C(=[NH2+])N(C)C.c1c[n-]cn1 [1,1,3,3-tetramethylguanidinium imidazol-1-ide]

- refractive index ([3]; x1 = 0.0499): 1.4074 ± 0.0005
- refractive index ([3]; x1 = 0.1004): 1.4159 ± 0.0005
- refractive index ([3]; x1 = 0.1999): 1.4316 ± 0.0005
- refractive index ([3]; x1 = 0.2997): 1.4443 ± 0.0005
- refractive index ([3]; x1 = 0.3985): 1.4545 ± 0.0005
- refractive index ([3]; x1 = 0.4997): 1.4641 ± 0.0005
- refractive index ([3]; x1 = 0.6499): 1.4748 ± 0.0006
- refractive index ([3]; x1 = 0.8002): 1.4839 ± 0.0006
- refractive index ([3]; x1 = 0.9004): 1.4888 ± 0.0006
- refractive index ([3]; x1 = 1): 1.4943 ± 0.0006
Structure (SMILES): CN(C)C(=[NH2+])N(C)C.c1c[n-]cn1 [1,1,3,3-tetramethylguanidinium imidazol-1-ide] + CCCCO

- refractive index ([3]; x1 = 0.0499): 1.3969 ± 0.0006
- refractive index ([3]; x1 = 0.0999): 1.4086 ± 0.0005
- refractive index ([3]; x1 = 0.2002): 1.428 ± 0.0005
- refractive index ([3]; x1 = 0.2996): 1.4423 ± 0.0005
- refractive index ([3]; x1 = 0.4002): 1.4545 ± 0.0005
- refractive index ([3]; x1 = 0.4988): 1.4642 ± 0.0005
- refractive index ([3]; x1 = 0.6264): 1.4742 ± 0.0006
- refractive index ([3]; x1 = 0.8001): 1.4848 ± 0.0006
- refractive index ([3]; x1 = 0.9006): 1.4895 ± 0.0006
- refractive index ([3]; x1 = 1): 1.4943 ± 0.0006
Structure (SMILES): CN(C)C(=[NH2+])N(C)C.c1c[n-]cn1 [1,1,3,3-tetramethylguanidinium imidazol-1-ide] + CCCO

- electrical conductivity ([4]; 298.15 K, x1 = 0.01): 0.0131 ± 0.001 S/m
- electrical conductivity ([4]; 298.15 K, x1 = 0.0299): 0.0337 ± 0.001 S/m
- electrical conductivity ([4]; 298.15 K, x1 = 0.0897): 0.092 ± 0.0013 S/m
- electrical conductivity ([4]; 298.15 K, x1 = 0.1197): 0.12 ± 0.0014 S/m
- electrical conductivity ([4]; 298.15 K, x1 = 0.1499): 0.139 ± 0.0015 S/m
- electrical conductivity ([4]; 298.15 K, x1 = 0.1797): 0.16 ± 0.0017 S/m
- electrical conductivity ([4]; 298.15 K, x1 = 0.2001): 0.166 ± 0.0017 S/m
- electrical conductivity ([4]; 298.15 K, x1 = 0.2195): 0.173 ± 0.0018 S/m
- electrical conductivity ([4]; 298.15 K, x1 = 0.2398): 0.179 ± 0.0018 S/m
- electrical conductivity ([4]; 298.15 K, x1 = 0.2602): 0.185 ± 0.0019 S/m
- electrical conductivity ([4]; 298.15 K, x1 = 0.2996): 0.199 ± 0.002 S/m
- electrical conductivity ([4]; 298.15 K, x1 = 0.3995): 0.213 ± 0.002 S/m
- electrical conductivity ([4]; 298.15 K, x1 = 0.5): 0.221 ± 0.002 S/m
- electrical conductivity ([4]; 298.15 K, x1 = 0.6467): 0.227 ± 0.002 S/m
- electrical conductivity ([4]; 298.15 K, x1 = 0.801): 0.229 ± 0.002 S/m
- electrical conductivity ([4]; 298.15 K, x1 = 0.8996): 0.223 ± 0.002 S/m
- electrical conductivity ([4]; 298.15 K, x1 = 1): 0.218 ± 0.002 S/m
- refractive index ([3]; x1 = 0.0483): 1.3799 ± 0.0006
- refractive index ([3]; x1 = 0.0999): 1.3983 ± 0.0006
- refractive index ([3]; x1 = 0.2003): 1.4242 ± 0.0006
- refractive index ([3]; x1 = 0.3001): 1.4405 ± 0.0005
- refractive index ([3]; x1 = 0.3999): 1.4547 ± 0.0005
- refractive index ([3]; x1 = 0.5): 1.4652 ± 0.0006
- refractive index ([3]; x1 = 0.643): 1.4762 ± 0.0006
- refractive index ([3]; x1 = 0.7966): 1.4854 ± 0.0006
- refractive index ([3]; x1 = 0.8987): 1.4903 ± 0.0006
- refractive index ([3]; x1 = 1): 1.4943 ± 0.0006
Structure (SMILES): CN(C)C(=[NH2+])N(C)C.c1c[n-]cn1 [1,1,3,3-tetramethylguanidinium imidazol-1-ide] + CCO

- refractive index ([3]; x1 = 0.0501): 1.3631 ± 0.0008
- refractive index ([3]; x1 = 0.1005): 1.389 ± 0.0006
- refractive index ([3]; x1 = 0.1957): 1.4222 ± 0.0006
- refractive index ([3]; x1 = 0.2953): 1.4423 ± 0.0005
- refractive index ([3]; x1 = 0.393): 1.4577 ± 0.0005
- refractive index ([3]; x1 = 0.5005): 1.4688 ± 0.0005
- refractive index ([3]; x1 = 0.6431): 1.4791 ± 0.0006
- refractive index ([3]; x1 = 0.7815): 1.4865 ± 0.0006
- refractive index ([3]; x1 = 0.8994): 1.4915 ± 0.0006
- refractive index ([3]; x1 = 1): 1.4943 ± 0.0006
Structure (SMILES): CN(C)C(=[NH2+])N(C)C.c1c[n-]cn1 [1,1,3,3-tetramethylguanidinium imidazol-1-ide] + CO

- refractive index [2]: 1.3975 ± 0.0005
Structure (SMILES): CCCCO [butan-1-ol]

- refractive index ([3]; x2 = 0): 1.3975 ± 0.0005
Structure (SMILES): CCCCO [butan-1-ol] + CN(C)C(=[NH2+])N(C)C.c1c[n-]cn1

- refractive index [2]: 1.3598 ± 0.0005
Structure (SMILES): CCO [ethanol]

- refractive index ([3]; x2 = 0): 1.3598 ± 0.0005
Structure (SMILES): CCO [ethanol] + CN(C)C(=[NH2+])N(C)C.c1c[n-]cn1

- refractive index [2]: 1.3267 ± 0.0005
Structure (SMILES): CO [methanol]

- refractive index ([3]; x2 = 0): 1.3267 ± 0.0005
Structure (SMILES): CO [methanol] + CN(C)C(=[NH2+])N(C)C.c1c[n-]cn1

- refractive index [2]: 1.3836 ± 0.0005
Structure (SMILES): CCCO [propan-1-ol]

- refractive index ([3]; x2 = 0): 1.3836 ± 0.0005
Structure (SMILES): CCCO [propan-1-ol] + CN(C)C(=[NH2+])N(C)C.c1c[n-]cn1

- viscosity ([1]; 293.15 K): 0.997 ± 0.041 mPa·s
- viscosity ([1]; 298.15 K): 0.886 ± 0.036 mPa·s
- viscosity ([1]; 303.15 K): 0.799 ± 0.033 mPa·s
- viscosity ([1]; 308.15 K): 0.726 ± 0.03 mPa·s
- viscosity ([1]; 313.15 K): 0.665 ± 0.027 mPa·s
- refractive index [2]: 1.3331 ± 0.0005
Structure (SMILES): O [water]

- viscosity ([4]; 293.15 K): 0.997 ± 0.041 mPa·s
- viscosity ([4]; 298.15 K): 0.886 ± 0.036 mPa·s
- viscosity ([4]; 303.15 K): 0.799 ± 0.033 mPa·s
- viscosity ([4]; 308.15 K): 0.726 ± 0.03 mPa·s
- viscosity ([4]; 313.15 K): 0.665 ± 0.027 mPa·s
- refractive index ([3]; x2 = 0): 1.3331 ± 0.0005
Structure (SMILES): O [water] + CN(C)C(=[NH2+])N(C)C.c1c[n-]cn1
